Measured values reported in US10988524B2, “Modified relaxin B chain peptides and their therapeutic use” (priority 2018, dated 2021).
Non-standard residues stand in square brackets, D forms with d. Residues, ends and D or L forms follow the SMILES beside them. αMeL = CC(C)C[C@](C)(N)C(=O)O; Nle = CCCC[C@H](N)C(=O)O; Aib = CC(C)(N)C(=O)O

Experiments:
[1] = Stability in human plasma; format: in vitro ADME; conditions: 37° C.; for Human Plasma stability % remaining, T = 0: 5 μM; for remaining at 1 h, 5 μM / remaining at 4 h, 5 μM: human plasma (sodium or lithium heparin)
Method: (§1) Prior to the testing of stability in plasma of a peptide batch, its purity (HPLC-UV) was determined.
(§2) Rat and Human plasma: anti-coagulant sodium or lithium heparin.
(§3) 100 μM solution of study compound in 50 mM Phosphate buffer pH 7.4.
(§4) 950 μL plasma is pre-incubated for 5 min at 37° C. 50 μL of compound stock solution is added. Final compound concentration=5 μM. Vortex and transfer 1504, plasma into an Eppendorf for each time point. The time points 0-1 and −4 h are carried out in duplicate for each species.
(§5) After incubation extract 1504, plasma with 6004, Acetonitrile containing with 1% TFA. Vortex and centrifuge 10 min at 14600 rpm. Dry 2004, supernatant under N2. Reconstitute sample in 200 μL of H2O/CH3CN 98/2+0.1% FA+50 ng/ml Labetalol and analyze using the analytical system used in solubility and stability studies.
(§6) For determination of the amount of the remaining peptide, the peak areas of the target compound at t0 and each time point […] were compared, resulting in “% remaining peptide”, following the equation
(§7) % remaining peptide=[(peak area peptide time)×100]/peak area peptide t0. The stability is expressed as “% remaining peptide”.

Stability in rat plasma = format: in vitro ADME; conditions: 37° C.; for Rat plasma stability % remaining, T = 0: 5 μM; for remaining at 1 h, 5 μM / remaining at 4 h, 5 μM: rat plasma (sodium or lithium heparin)
Method: as §1, §2, §3, §4, §5, §6, §7

RXFP1 = biological target: T1, RXFP1 (Homo sapiens, UniProt Q9HBX9); experiment: OVCAR5 cAMP assay (RXFP1 agonist activity, HTRF); conditions: for Emax: OVCAR-5, read-out: cAMP assay in OVCAR 5 cells Emax, maximal intracellular cAMP relative to H2-relaxin in the same test occasion
T1 sequence (Q9HBX9 1-757): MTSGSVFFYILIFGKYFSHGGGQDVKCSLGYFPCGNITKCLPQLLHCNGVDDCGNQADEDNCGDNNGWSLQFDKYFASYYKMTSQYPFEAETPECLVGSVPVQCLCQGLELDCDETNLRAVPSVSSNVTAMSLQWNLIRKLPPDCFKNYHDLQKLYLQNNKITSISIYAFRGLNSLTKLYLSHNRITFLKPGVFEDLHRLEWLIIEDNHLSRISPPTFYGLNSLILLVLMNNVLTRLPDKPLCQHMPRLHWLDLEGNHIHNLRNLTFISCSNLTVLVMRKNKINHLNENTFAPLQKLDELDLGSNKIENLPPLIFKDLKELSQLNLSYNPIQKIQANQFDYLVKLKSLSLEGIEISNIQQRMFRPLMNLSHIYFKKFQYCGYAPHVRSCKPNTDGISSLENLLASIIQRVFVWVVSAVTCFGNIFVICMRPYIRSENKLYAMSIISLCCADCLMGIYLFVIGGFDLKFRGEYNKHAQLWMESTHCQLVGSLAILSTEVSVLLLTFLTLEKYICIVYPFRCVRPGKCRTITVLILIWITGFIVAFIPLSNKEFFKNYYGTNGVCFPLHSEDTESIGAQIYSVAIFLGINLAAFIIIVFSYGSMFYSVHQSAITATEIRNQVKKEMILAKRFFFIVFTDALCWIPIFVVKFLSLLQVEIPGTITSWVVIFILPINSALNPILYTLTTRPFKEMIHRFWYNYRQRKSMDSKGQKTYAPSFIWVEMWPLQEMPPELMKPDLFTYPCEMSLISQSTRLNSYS

[2] = Solubility testing of peptides in buffer; format: physicochemical; conditions: Phosphate buffer 50 mM pH 7.4; target solubility 2.0 mg/ml; ~19 h; read-out: Solubility phosphate buffer pH 7.4

| Human Plasma stability % remaining, T = 0 [1] [%] | Rat plasma stability % remaining, T = 0 (Stability in rat plasma) [%] | Emax (RXFP1) [%] | Compound | further results |
| --- | --- | --- | --- | --- |
| 100 | 100 | 91 | CC[C@H](C)[C@H](NC(=O)[C@H](CCC(N)=O)NC(=O)[C@H](C)NC(=O)[C@H](CCCNC(=N)N)NC(=O)[C@@H](NC(=O)[C@H](CCCCN)NC(=O)[C@H](CCC(=O)O)NC(=O)[C@H](CCCNC(=N)N)NC(=O)CNC(=O)[C@H](CCC(=O)O)NC(=O)[C@H](CC(C)C)NC(C)=O)C(C)C)C(=O)NC(C)(C)C(=O)N[C@H](C(=O)N[C@@H](CCC(=O)O)C(=O)NCC(=O)N[C@@H](CCSC)C(=O)N[C@@H](CO)C(=O)N[C@@H](CCCCN)C(=O)N[C@@H](Cc1c[nH]c2ccccc12)C(=O)N[C@@H](CO)C(=O)N[C@@H](CCCCN)C(=O)N[C@@H](CCCNC(=N)N)C(=O)N[C@@H](CCCCN)C(=O)N[C@@H](CCCCN)C(N)=O)[C@@H](C)CC [compound 1] (Ac-LEGREKVRAQI[Aib]IEGMSKWSKRKK-NH2) | remaining at 1 h, 5 μM [1]: 71%; remaining at 4 h, 5 μM [1]: 55%; remaining at 1 h, 5 μM (Stability in rat plasma): 72%; remaining at 4 h, 5 μM (Stability in rat plasma): 17% |
| 100 | 100 | 99 | CC[C@H](C)[C@H](NC(=O)[C@H](CCC(N)=O)NC(=O)[C@H](C)NC(=O)[C@H](CCCNC(=N)N)NC(=O)[C@@H](NC(=O)[C@H](CCCCN)NC(=O)[C@H](CCC(=O)O)NC(=O)[C@H](CCCNC(=N)N)NC(=O)CNC(=O)[C@H](CCC(=O)O)NC(=O)[C@H](CC(C)C)NC(C)=O)C(C)C)C(=O)NC(C)(C)C(=O)NC(C)(C)C(=O)N[C@@H](CCC(=O)O)C(=O)NCC(=O)N[C@@H](CCSC)C(=O)N[C@@H](CO)C(=O)N[C@@H](CCCCN)C(=O)N[C@@H](Cc1c[nH]c2ccccc12)C(=O)N[C@@H](CO)C(=O)N[C@@H](CCCCN)C(=O)N[C@@H](CCCNC(=N)N)C(=O)N[C@@H](CCCCN)C(=O)N[C@@H](CCCCN)C(N)=O [compound 2] (Ac-LEGREKVRAQI[Aib][Aib]EGMSKWSKRKK-NH2) | remaining at 1 h, 5 μM [1]: 80%; remaining at 4 h, 5 μM [1]: 79%; remaining at 1 h, 5 μM (Stability in rat plasma): 57%; remaining at 4 h, 5 μM (Stability in rat plasma): 24% |
|  |  | 82 | CC[C@H](C)[C@H](NC(=O)[C@H](CCC(N)=O)NC(=O)[C@H](C)NC(=O)[C@H](CCCNC(=N)N)NC(=O)[C@@H](NC(=O)[C@H](CCCCN)NC(=O)[C@H](CCC(=O)O)NC(=O)[C@H](CCCNC(=N)N)NC(=O)CNC(=O)[C@H](CCC(=O)O)NC(=O)[C@H](CC(C)C)NC(C)=O)C(C)C)C(=O)NC(C)(C)C(=O)NC(C)(C)C(=O)N[C@@H](CCC(=O)O)C(=O)NCC(=O)N[C@@H](CCSC)C(=O)N[C@@H](CO)C(=O)N[C@@H](CCCCN)C(=O)N[C@@H](Cc1c[nH]c2ccccc12)C(=O)N[C@@H](CO)C(=O)NC(C)(C)C(=O)N[C@@H](CCCNC(=N)N)C(N)=O [compound 46] (Ac-LEGREKVRAQI[Aib][Aib]EGMSKWS[Aib]R-NH2) |  |
|  |  | 94 | CCCC[C@H](NC(=O)CNC(=O)[C@H](CCC(=O)O)NC(=O)C(C)(C)NC(=O)C(C)(C)NC(=O)[C@@H](NC(=O)[C@H](CCCCNC(C)=O)NC(=O)[C@H](C)NC(=O)[C@H](CCCNC(=N)N)NC(=O)[C@@H](NC(=O)[C@H](CCCCN)NC(=O)[C@H](CCC(=O)O)NC(=O)[C@H](CCCNC(=N)N)NC(=O)CNC(=O)[C@H](CCC(=O)O)NC(=O)[C@H](CC(C)C)NC(C)=O)C(C)C)[C@@H](C)CC)C(=O)N[C@@H](CO)C(=O)N[C@H](C(=O)N[C@@H](Cc1c[nH]c2ccccc12)C(=O)N[C@@H](CO)C(=O)NC(C)(C)C(=O)N[C@@H](CCCNC(=N)N)C(=O)N[C@@H](CCCCN)C(N)=O)[C@@H](C)O [compound 47] (Ac-LEGREKVRAK(Ac)I[Aib][Aib]EG[Nle]STWS[Aib]RK-NH2) |  |
|  |  | 91 | CCCC[C@H](NC(=O)CNC(=O)[C@H](CCC(=O)O)NC(=O)C(C)(C)NC(=O)C(C)(C)NC(=O)[C@@H](NC(=O)[C@H](C)NC(=O)[C@H](C)NC(=O)[C@H](CCCNC(=N)N)NC(=O)[C@@H](NC(=O)[C@H](CCCCN)NC(=O)[C@H](CCC(=O)O)NC(=O)[C@H](CCCNC(=N)N)NC(=O)CNC(=O)[C@H](CCC(=O)O)NC(=O)[C@H](CC(C)C)NC(=O)[C@H](CCC(=O)O)NC(C)=O)C(C)C)[C@@H](C)CC)C(=O)N[C@@H](CO)C(=O)N[C@H](C(=O)N[C@@H](Cc1c[nH]c2ccccc12)C(=O)N[C@@H](CO)C(=O)NC(C)(C)C(=O)N[C@@H](CCCNC(=N)N)C(=O)N[C@@H](CCCCN)C(=O)N[C@@H](CCCCN)C(N)=O)[C@@H](C)O [compound 48] (Ac-ELEGREKVRAAI[Aib][Aib]EG[Nle]STWS[Aib]RKK-NH2) |  |
|  |  | 95 | CCCC[C@H](NC(=O)CNC(=O)[C@H](CCC(=O)O)NC(=O)C(C)(C)NC(=O)C(C)(C)NC(=O)[C@@H](NC(=O)[C@H](CCC(N)=O)NC(=O)[C@H](CCCNC(=N)N)NC(=O)[C@H](CCCNC(=N)N)NC(=O)[C@@H](NC(=O)[C@H](CCCCN)NC(=O)[C@H](CCC(=O)O)NC(=O)[C@H](CCCNC(=N)N)NC(=O)CNC(=O)[C@H](CCC(=O)O)NC(=O)[C@H](CC(C)C)NC(C)=O)C(C)C)[C@@H](C)CC)C(=O)N[C@@H](CO)C(=O)N[C@H](C(=O)N[C@@H](Cc1c[nH]c2ccccc12)C(=O)N[C@@H](CO)C(=O)NC(C)(C)C(=O)N[C@@H](CCCNC(=N)N)C(=O)N[C@@H](CCCCN)C(=O)N[C@@H](CCCCN)C(N)=O)[C@@H](C)O [compound 49] (Ac-LEGREKVRRQI[Aib][Aib]EG[Nle]STWS[Aib]RKK-NH2) | solubility [2]: ≥ 2500 µg/mL |
|  |  | 95 | CCCC[C@H](NC(=O)CNC(=O)[C@H](CCC(=O)O)NC(=O)C(C)(C)NC(=O)C(C)(C)NC(=O)[C@@H](NC(=O)[C@H](CCCCNC(C)=O)NC(=O)[C@H](C)NC(=O)[C@H](CCCNC(=N)N)NC(=O)[C@@H](NC(=O)[C@H](CCCCN)NC(=O)[C@H](CCC(=O)O)NC(=O)[C@H](CCCNC(=N)N)NC(=O)CNC(=O)[C@H](CCC(=O)O)NC(=O)[C@](C)(CC(C)C)NC(C)=O)C(C)C)[C@@H](C)CC)C(=O)N[C@@H](CO)C(=O)N[C@H](C(=O)N[C@@H](Cc1c[nH]c2ccccc12)C(=O)N[C@@H](CO)C(=O)NC(C)(C)C(=O)N[C@@H](CCCNC(=N)N)C(=O)N[C@@H](CCCCN)C(=O)N[C@@H](CCCCNC(C)=O)C(N)=O)[C@@H](C)O [compound 56] (Ac-[αMeL]EGREKVRAK(Ac)I[Aib][Aib]EG[Nle]STWS[Aib]RKK(Ac)-NH2) |  |
|  |  | 91 | CC[C@H](C)[C@H](NC(=O)[C@H](CCC(N)=O)NC(=O)[C@H](C)NC(=O)[C@H](CCCNC(=N)N)NC(=O)[C@@H](NC(=O)[C@H](CCCCN)NC(=O)[C@H](CCC(=O)O)NC(=O)[C@H](CCCNC(=N)N)NC(=O)CNC(=O)[C@H](CCC(=O)O)NC(=O)[C@H](CC(C)C)NC(C)=O)C(C)C)C(=O)NC(C)(C)C(=O)NC(C)(C)C(=O)N[C@@H](CCC(=O)O)C(=O)NCC(=O)N[C@@H](CCC(N)=O)C(=O)N[C@@H](CO)C(=O)N[C@H](C(=O)N[C@@H](Cc1ccccc1)C(=O)N[C@@H](CO)C(=O)NC(C)(C)C(=O)N[C@@H](CCCNC(=N)N)C(=O)N[C@@H](CCCCN)C(=O)N[C@@H](CCCCN)C(N)=O)[C@@H](C)O [compound 57] (Ac-LEGREKVRAQI[Aib][Aib]EGQSTFS[Aib]RKK-NH2) | EC50 (RXFP1; cAMP assay in OVCAR 5 cells EC50 (nM), OVCAR5 cells expressing endogenous RXFP1, cAMP by HTRF, 30 min at 37° C., 1 mM IBMX): 24.4 nM |
| 100 | 100 |  | Ac-VIKLSGRELVRAQIAISGMSTWSKKKK-NH2 [KKKK(AcB7-29 C11.23S), reference compound] |  |
| 100 | 100 |  | Ac-VIKLSGRELVRAQIAISGMSTWSKRSL-NH2 [AcB7-33 C11.23S, reference compound] |  |
| 100 | 100 |  | H-VIKLSGRELVRAQIAISGMSTWSKRSL-NH2 [B7-33 C11.23S, reference compound] |  |
